The source of these data is patent US20110318415A1, “Hollow Gold Nanospheres (HAuNSs) and HAuNSs-Loaded Microspheres Useful in Drug Delivery” (priority 2009, published 2011).

Test [1] deals with MDA-MB-231 cells. The test can be described thus: Cytotoxicity of DOX-HAuNS and DOX-PEG-HAuNS (MTT). The format is cell-based, human. Particulars: equivalent DOX concentration 10 μg/mL, no NIR. How it is done: A total of 2.0×10^4 cells were plated in 96-well plates and incubated for 24 h to allow the cells to attach. The cells were exposed to free DOX, DOX@HAuNS, or DOX@PEG-HAuNS with various DOX concentrations. The cells were or were not irradiated with NIR laser at an output power of 2 W/cm^2 (3 min per treatment, 4 treatments in 2 h). Then the cells were incubated at 37° C. for a further 48 h. […] The data reported represented the means of triplicate measurements. In a separate experiment, the cells were exposed to HAuNS with various Au concentrations and then were or were not irradiated with NIR laser under the same conditions. Cell survival efficiency was measured after the incubation at 37° C. for 48 h.

Test [2] deals with MDA-MB-231 cells. Nature of the test: Cell uptake of DOX@HAuNS and DOX@PEG-HAuNS (fluorescence and dark-field microscopy). Type of test: cell-based, human. The conditions noted are these: without NIR laser; 1 h to 48 h incubation. As for the experimental part: MDA-MB-231 cells were transferred and cultured onto 20-mm glass cover slips in a 24-well plate and allowed to grow for 2 days. Then the medium was replaced with 1 mL of fresh culture medium containing free DOX, DOX@HAuNS, or DOX@PEG-HAuNS. After incubation for 1 hr or 48 h, the cell monolayer on the cover slip was removed, repeatedly rinsed with PBS, and then mounted for microscopic examination. The cellular fluorescence and dark-field light scattering images were examined under a Zeiss Axio Observer.Z1 fluorescence microscope (Carl Zeiss MicroImaging GmbH, USA) equipped with a dark-field condenser.
In a separated experiment, MDA-MB-231 cells cultured on 20-mm glass cover slips were irradiated with NIR laser (1.0 W/cm^2 for 3 min per treatment, 4 treatments in 2 h). Cell nuclei were stained with DAPI. The cellular fluorescence and light scattering images were obtained as described in the preceding paragraph.

Consider `COc1cccc2c1C(=O)c1c(O)c3c(c(O)c1C2=O)C[C@@](O)(C(=O)CO)C[C@@H]3O[C@H]1C[C@H](N)[C@H](O)[C@H](C)O1` [free DOX, doxorubicin], for which the cells killed with MDA-MB-231 cells [1] came to 77.4%. Further, the “cellular uptake and intracellular distribution” value in the test with MDA-MB-231 cells [2] is “taken up by the tumor cells and distributed to cell nuclei”.
